Where “and” joins values, the source holds several entries; their conditions need not be identical. Equal entries are not always repeated.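 Method: 48-hour compound exposure of cells in 96-well plates, five concentrations, linear interpolation of endpoints. At the GI50, growth is halved. At the TGI there is no net growth.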

Test systems include HCC-2998 colon; HOP-62 NSCLC; HOP-92 NSCLC; KM12 colon; NCI-H460 lung; NCI/ADR-RES ovarian; OVCAR-5 ovarian; SK-OV-3 ovarian; SNB-19 CNS; U251 CNS.
What all share (test): inhibition of tumour cell growth, NCI panel, 48 h

Consider `O=C1Nc2ccc(Br)cc2C12CC(c1ccccc1)=NN2` (centres undefined), for which the GI50 with HCC-2998 colon was 15.9 µM; in the assay with HOP-62 NSCLC it was 6.17 µM; in the assay with HOP-92 NSCLC, 1.66 µM; with KM12 colon, 3.86 µM; in the assay with NCI-H460 lung, 3.76 µM; with NCI/ADR-RES ovarian, 3.89 µM. Further, the GI50 is 16.7 µM in the assay on OVCAR-5 ovarian, 4.44 µM in the assay with SK-OV-3 ovarian, 9.25 µM in the assay with SNB-19 CNS and 3.84 µM with U251 CNS. For the same molecule, the TGI is 65.1 µM with HCC-2998 colon; > 100 µM in the assay with HOP-62 NSCLC; 26.2 µM in the assay on HOP-92 NSCLC; 38.8 µM with KM12 colon; 19.4 µM in the assay with NCI-H460 lung; 35.8 µM in the assay with NCI/ADR-RES ovarian. Also, the TGI was > 100 µM in the assay on OVCAR-5 ovarian, 87.3 µM in the assay on SK-OV-3 ovarian, > 100 µM in the assay on SNB-19 CNS and 19.2 µM in the assay on U251 CNS.

Take `Cn1cc(/C=C\[N+](=O)[O-])c2ccccc21`: the GI50 is 33.2 µM in the assay on HCC-2998 colon; > 100 µM with HOP-62 NSCLC; 30.6 µM in the assay with HOP-92 NSCLC; 34.9 µM in the assay with KM12 colon; 38.6 µM with NCI-H460 lung; > 100 µM with NCI/ADR-RES ovarian. For the same molecule, the GI50 with OVCAR-5 ovarian is > 100 µM; in the assay on SK-OV-3 ovarian, > 100 µM; in the assay on SNB-19 CNS, 75 µM; in the assay on U251 CNS, 36.5 µM. The TGI in the assay on HCC-2998 colon, in the assay on HOP-62 NSCLC, with HOP-92 NSCLC, in the assay on KM12 colon, with NCI-H460 lung and with NCI/ADR-RES ovarian was > 100 µM each time. Also, the TGI with OVCAR-5 ovarian, in the assay with SK-OV-3 ovarian, in the assay with SNB-19 CNS and in the assay with U251 CNS was > 100 µM each time.

As for `N#CCn1c(=O)c(Oc2ccc(F)cc2F)cc2cnc(NC3CCOCC3)nc21`, the GI50 is > 25 µM in the assay on HCC-2998 colon; > 25 µM in the assay on HOP-62 NSCLC; 15.4 µM with HOP-92 NSCLC; > 25 µM in the assay on KM12 colon; > 25 µM in the assay with NCI-H460 lung; > 25 µM in the assay with NCI/ADR-RES ovarian. The GI50 in the assay on OVCAR-5 ovarian, in the assay with SK-OV-3 ovarian, in the assay with SNB-19 CNS and in the assay with U251 CNS was > 25 µM in each case. Further, the TGI in the assay on HCC-2998 colon, with HOP-62 NSCLC, in the assay on HOP-92 NSCLC, with KM12 colon, in the assay with NCI-H460 lung and in the assay on NCI/ADR-RES ovarian was > 25 µM each time. The TGI in the assay on OVCAR-5 ovarian, in the assay with SK-OV-3 ovarian, in the assay with SNB-19 CNS and in the assay with U251 CNS was > 25 µM throughout.

Regarding `COc1cc2oc(-c3cccc(C(=O)Nc4ccc(Cl)cc4)c3)cc(=O)c2c(OC)c1OC`, the GI50 with HCC-2998 colon is 3.05 µM; with HOP-62 NSCLC it was 2.66 µM; in the assay with HOP-92 NSCLC it was 1.46 µM; in the assay on KM12 colon, 2.37 µM; with NCI-H460 lung, 2.76 µM; in the assay on NCI/ADR-RES ovarian it was 1.81 µM. In addition, the GI50 in the assay on OVCAR-5 ovarian was 1.87 µM; in the assay on SK-OV-3 ovarian, 3.41 µM; in the assay with SNB-19 CNS, 6.35 µM; in the assay with U251 CNS, 4.08 µM. For the same molecule, the TGI is > 100 µM with HCC-2998 colon; 9.89 µM in the assay on HOP-62 NSCLC; 5.58 µM with HOP-92 NSCLC; > 100 µM in the assay on KM12 colon; > 100 µM with NCI-H460 lung; > 100 µM in the assay on NCI/ADR-RES ovarian. For the same molecule, the TGI in the assay with OVCAR-5 ovarian, in the assay on SK-OV-3 ovarian, in the assay with SNB-19 CNS and in the assay on U251 CNS was > 100 µM in each case.

For `CN1CCN(CC(=O)N(C)c2ccc(N=C(c3ccccc3)c3c(O)[nH]c4ccc(C#N)cc34)cc2)CC1`, the GI50 in the assay with HCC-2998 colon was 3.38 µM; in the assay on HOP-62 NSCLC, 3.99 µM; in the assay on HOP-92 NSCLC, 3.36 µM; in the assay with KM12 colon it was 0.0516 µM; in the assay with NCI-H460 lung, 1.38 µM; in the assay on NCI/ADR-RES ovarian, 17.9 µM. Moreover, the GI50 in the assay with OVCAR-5 ovarian is 7.11 µM; with SK-OV-3 ovarian, 0.614 µM; in the assay on SNB-19 CNS, 4.16 µM; in the assay on U251 CNS, 2.14 µM. Moreover, the TGI in the assay on HCC-2998 colon came out at 13.4 µM; with HOP-62 NSCLC it was 16.5 µM; in the assay on HOP-92 NSCLC, 20.8 µM; with KM12 colon, 6.03 µM; with NCI-H460 lung it was 3.25 µM; in the assay on NCI/ADR-RES ovarian it was 60.1 µM. Besides, the TGI turned out to be 19.2 µM in the assay on OVCAR-5 ovarian, 21.1 µM with SK-OV-3 ovarian, 16.6 µM in the assay with SNB-19 CNS and 6.88 µM in the assay on U251 CNS.

Regarding `Oc1ccc(Br)cc1C=Nc1cccc(C(F)(F)F)c1`, the TGI in the assay on HCC-2998 colon is 60.1 µM; in the assay on HOP-62 NSCLC it was > 100 µM; in the assay with HOP-92 NSCLC, > 100 µM; in the assay on KM12 colon it was > 100 µM; in the assay with NCI-H460 lung, > 100 µM; with NCI/ADR-RES ovarian, > 100 µM. Besides, the TGI in the assay on OVCAR-5 ovarian is > 100 µM; in the assay with SK-OV-3 ovarian it was > 100 µM; with SNB-19 CNS, > 100 µM; with U251 CNS it was 45.1 µM.

In the case of `COC(=O)NC1C(C)OC(OC2C/C=C(/C)C3C=CC4C(OC5CC(OC6CCC(OC7CC(O)C(OC8CCC(O)C(C)O8)C(C)O7)C(C)O6)C(OC(C)=O)C(C)O5)C(C)CC(C)C4C3(C)/C(O)=C3/C(=O)OC4(CC(C=O)=CC(O)C4/C=C\2C)C3=O)CC1(C)[N+](=O)[O-]` (centres undefined), the GI50 with HCC-2998 colon was 0.208 µM; with HOP-62 NSCLC, 0.275 µM; with HOP-92 NSCLC it was 0.908 µM; in the assay with KM12 colon, 0.0714 µM; with NCI-H460 lung, 0.319 µM; with OVCAR-5 ovarian it was 1.14 µM. Moreover, the GI50 is 2.85 µM in the assay with SK-OV-3 ovarian, 0.0728 µM in the assay on SNB-19 CNS and 0.179 µM in the assay on U251 CNS. In addition, the TGI in the assay with HCC-2998 colon was 1.95 µM and 0.453 µM; in the assay with HOP-62 NSCLC it was 1.81 µM and 0.667 µM; in the assay on HOP-92 NSCLC it was 2.69 µM and 3.32 µM; with KM12 colon, 2.04 µM and 0.337 µM; in the assay on NCI-H460 lung, 2.17 µM and 2.14 µM; in the assay on NCI/ADR-RES ovarian it was 26.3 µM. For the same molecule, the TGI with OVCAR-5 ovarian was 4.71 µM and 2.55 µM; with SK-OV-3 ovarian it was 7.51 µM and 8.97 µM; in the assay with SNB-19 CNS it was 3.45 µM and 0.509 µM; with U251 CNS, 0.901 µM and 0.499 µM.

For `CN=C(N)c1ccc(N=C(N)c2ccc(-c3ccc(C(N)=Nc4ccc(C(N)=NC)cc4)cc3)cc2)cc1`, the GI50 was > 100 µM in the assay with HCC-2998 colon; > 100 µM with HOP-62 NSCLC; 84.5 µM in the assay on HOP-92 NSCLC; 61.9 µM in the assay on KM12 colon; 55.8 µM in the assay with NCI-H460 lung; > 100 µM with NCI/ADR-RES ovarian. The GI50 in the assay with OVCAR-5 ovarian was > 100 µM; with SK-OV-3 ovarian it was > 100 µM; with SNB-19 CNS, > 100 µM; in the assay on U251 CNS it was 55.5 µM. For the same molecule, the TGI in the assay with HCC-2998 colon, in the assay on HOP-62 NSCLC, in the assay with HOP-92 NSCLC, with KM12 colon, with NCI-H460 lung and in the assay on NCI/ADR-RES ovarian was > 100 µM throughout. Further, the TGI in the assay with OVCAR-5 ovarian, with SK-OV-3 ovarian, with SNB-19 CNS and in the assay on U251 CNS was > 100 µM in each case.

The values are drawn from PubChem BioAssay (NCI).
